# US9974721B2, “Cosmetic composition for lightening skin and hair” (Symrise AG, priority 2013, dated 2018)
# Several values for one entry are separate records, joined by “and”; a condition that tells them apart may be missing. Equal entries are not always repeated.
# How the values were obtained:
# [1] = biological target: plasminogen activator inhibitor-1 (PAI-1) (Homo sapiens, UniProt P05121); conditions: US 2010 0137194; cited from earlier work
# [2] = biological target: T1, transient receptor potential cation channel-6 (TRPC6) (Homo sapiens, UniProt Q9Y210); conditions: WO 2013 021038 A1; cited from earlier work
# T1 sequence (Q9Y210 1-931): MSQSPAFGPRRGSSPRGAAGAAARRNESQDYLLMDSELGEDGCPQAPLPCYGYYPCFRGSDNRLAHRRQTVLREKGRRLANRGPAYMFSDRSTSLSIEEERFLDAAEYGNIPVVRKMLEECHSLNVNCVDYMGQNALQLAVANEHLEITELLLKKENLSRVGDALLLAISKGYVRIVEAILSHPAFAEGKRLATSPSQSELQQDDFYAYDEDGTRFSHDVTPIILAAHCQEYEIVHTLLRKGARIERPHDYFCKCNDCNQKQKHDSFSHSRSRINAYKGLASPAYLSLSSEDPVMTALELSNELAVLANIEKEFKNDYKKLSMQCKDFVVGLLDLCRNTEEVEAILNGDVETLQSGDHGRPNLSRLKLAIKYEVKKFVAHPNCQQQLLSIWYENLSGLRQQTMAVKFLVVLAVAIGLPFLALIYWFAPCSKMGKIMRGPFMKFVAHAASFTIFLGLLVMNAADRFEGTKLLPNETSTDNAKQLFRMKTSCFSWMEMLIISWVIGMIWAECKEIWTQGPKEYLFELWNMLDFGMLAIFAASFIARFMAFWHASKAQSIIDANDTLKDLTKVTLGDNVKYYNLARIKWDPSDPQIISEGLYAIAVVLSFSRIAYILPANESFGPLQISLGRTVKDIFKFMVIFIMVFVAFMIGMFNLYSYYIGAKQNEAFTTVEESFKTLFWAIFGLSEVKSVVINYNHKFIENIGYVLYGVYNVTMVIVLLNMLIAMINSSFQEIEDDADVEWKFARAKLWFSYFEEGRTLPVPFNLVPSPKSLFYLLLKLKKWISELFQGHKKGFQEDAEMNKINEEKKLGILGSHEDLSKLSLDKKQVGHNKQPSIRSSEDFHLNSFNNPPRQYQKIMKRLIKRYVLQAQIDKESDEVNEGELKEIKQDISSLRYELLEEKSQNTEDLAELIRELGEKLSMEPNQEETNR
# [3] = Incorporation into commonly used cosmetic formulations / crystallisation; format: physicochemical; conditions: for incorporation into commonly used cosmetic formulations: own experiments
# Source text: The analogues compound manool was already described as skin lightening active (JP 2006 137705 (Pola) and JP 06072855 (Pola)).
# [4] = test system: B16V mouse melanoma cells; assay: Depigmentation effect on melanoma cell cultures (inhibition of pigmentation); format: cell-based; conditions: for IC50: Mus musculus, B16V cells, 0.3 mM tyrosine + 10 nM α-MSH, 96 h, absorption at 400 nm
# Description: (§1) B16V mouse melanoma cells are disseminated in a 96-well micro-titre plate in a concentration of 7.5×10^3 cells/well. After cultivation for 24 h at 37° C. and 5% CO2 in RPMI medium, enriched with 10% foetal calf serum, various concentrations of the test substances and 0.3 mM tyrosine and 10 nM α-MSH (α-melanocyte stimulating hormone) are added and incubated for a further 96 h. The maximum concentration of the test substances used corresponds to 0.1 times the value of the IC20 value of the cytotoxicity assay. Only tyrosine and α-MSH are added to the controls. After incubation, sodium hydroxide solution (final concentrations: 1 M) is added to the culture medium and the absorption (A) is measured after 3 h at 400 nm.
# (§2) The inhibition of pigmentation in the presence of the test compounds was calculated using the following equation: Inhibition of pigmentation (%)=100−[(Atest compound/Acontrol)×100] wherein Atest compound=absorption of the wells with test substance and with cells Acontrol=absorption of the wells without test substance, but with cells
# From the inhibition of pigmentation (%) in a series of dilutions of test compounds, the IC50 for each test compound is calculated. This is the concentration of a test compound at which pigmentation is inhibited by 50%.
# Human skin = assay: Depigmentation effect on ex vivo skin (melanin granules, Fontana-Masson, image analysis); format: cell-based; conditions: 0.1 wt.% in O/W emulsion, topical, 6 days
# Description: Human skin, originating from plastic surgery, was cut into 4×4×3 mm pieces (length×width×height) and placed in culture at the air-liquid interface on a sterilized cotton pad soaked with 5 ml of customized DMEM (Dulbecco's Modified Eagle Medium). Assays were started 24 h after sample acclimatization at 37° C., 5% CO2. O/W emulsions (as described in more detail below) without (=control) and with the test compounds, respectively, were applied topically and incubated for 6 days. Histological sections were prepared and melanin granules stained by Fontana-Masson technique. The granules were quantified by image analysis. The results are compiled in Tables 3.1 and 3.2.
# Phases A and B are heated to 70° C. separately. Pemulen TR1 as well as Ultrez-21 are dispersed in phase B when heated to 70° C. Phase B/C is added to phase A by mixing with an Ultra Turrax, followed by emulsifying. Phase D is slowly added to phase A/B/C using a paddle mixer and a pH 5.5-6 is adjusted. The formulation is cooled down while mixing with a paddle mixer. Phase E is added to the mixture of phase A-D.
# [5] = test system: B16V mouse melanoma cells; assay: Synergistic in vitro melanin inhibition (procedure of Example 1, Kull synergy index); format: cell-based; conditions: experiments 1 and 2, mixture 75% Larixol / 25% SymWhite 377
# Description: as §1, §2
# From the inhibition of pigmentation (%) in a series of dilutions of test compounds, the IC50 for each test compound is calculated. […]
# The Synergy Index (SI)^1 is calculated according to Kull's equation as follows: ^1 The calculation of the synergy index (SI-value) was carried out on the basis of following literature: D. C. […]
# plasminogen activator inhibitor-1 (PAI-1), sequence (P05121 24-402, species assumed): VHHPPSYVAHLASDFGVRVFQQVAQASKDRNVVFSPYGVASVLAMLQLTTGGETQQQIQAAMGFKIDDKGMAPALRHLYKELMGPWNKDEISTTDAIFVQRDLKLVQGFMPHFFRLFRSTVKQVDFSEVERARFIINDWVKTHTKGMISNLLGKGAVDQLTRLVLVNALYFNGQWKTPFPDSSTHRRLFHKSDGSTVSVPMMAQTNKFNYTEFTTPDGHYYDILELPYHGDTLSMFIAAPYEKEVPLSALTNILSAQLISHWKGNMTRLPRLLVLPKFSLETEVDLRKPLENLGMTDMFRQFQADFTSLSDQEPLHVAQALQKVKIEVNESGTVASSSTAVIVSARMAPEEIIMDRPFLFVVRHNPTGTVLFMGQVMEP
SMILES,TRPC6 antagonism [2],incorporation into commonly used cosmetic formulations [3],IC50 [4],Melanin inhibition IC50 [5],also measured
"C=C[C@@](C)(O)CC[C@H]1C(=C)C[C@H](O)[C@H]2C(C)(C)CCC[C@]12C [Larixol, (1S,4S,4aR,8aS)-4-[(3S)-3-Hydroxy-3-methylpent-4-enyl]-4a,8,8-trimethyl-3-methylenedecahydronaphthalen-1-ol]",TRPC6 antagonists,can easily be incorporated,3.9 µM,0.00011%,PAI-1 inhibition (screening) [1]: PAI-1 inhibitor; inhibitory activity towards melanin formation in melanocytes ([4]; statement in words): strong inhibitory activity; Melanin score vs. Control (Human skin): −41%
"CC(c1ccccc1)c1ccc(O)cc1O (stereo not shown) [SymWhite ® 377, 4-(1-phenylethyl)1,3-dihydroxybenzene]",–,–,–,0.000021% and 0.000034%,–
"OC[C@H]1O[C@@H](Oc2ccc(O)cc2)[C@H](O)[C@@H](O)[C@@H]1O [beta-Arbutin, reference compound]",–,–,67 µM,–,–
C=CC(C)(O)CCC1C(=C)CC(OC(C)=O)C2C(C)(C)CCCC12C (stereo not shown) [larixyl acetate],TRPC6 antagonists,–,–,–,–
C=CC(C)(CCC1C(=C)CC(OC(C)=O)C2C(C)(C)CCCC12C)OC(C)=O (stereo not shown) [larixyl diacetate],TRPC6 antagonists,–,–,–,–
C=C[C@](C)(O)CC[C@H]1C(=C)CC[C@H]2C(C)(C)CCC[C@]12C [manool],–,difficult to incorporate,–,–,"crystallisation in formulation ([3]; formulation with manool, after a few days): crystallisation of manool after a few days"
